According to ChEMBL document CHEMBL1150671, “Online analysis of xestodecalactones A-C, novel bioactive metabolites from the fungus Penicillium cf. montanense and their subsequent isolation from the sponge Xestospongia exigua” (2002):
Active and inactive are the calls of the source. The rule behind the calls is not given here.

How the values were obtained:
Staphylococcus aureus = assay: Antibacterial activity against Staphylococcus aureus ATCC 25923; format: functional, organism-based
Escherichia coli [1] = assay: Antibacterial activity against Escherichia coli ATCC 25922; format: functional, organism-based
Bacillus subtilis = assay: Antibacterial activity against Bacillus subtilis 168; format: functional, organism-based; details: subsp. subtilis str. 168
Escherichia coli [2] = assay: Antibacterial activity against Escherichia coli HB 101; format: functional, organism-based
Candida albicans [3] = assay: Antifungal activity against Candida albicans at 50 umol by agar diffusion assay; format: functional
Candida albicans [4] = assay: Antifungal activity against Candida albicans at 20 umol by agar diffusion assay; format: functional
Candida albicans [5] = assay: Antifungal activity against Candida albicans at 100 umol by agar diffusion assay; format: functional

Compound | Activity (Staphylococcus aureus) | Activity (Escherichia coli [1]) | Activity (Bacillus subtilis) | Activity (Escherichia coli [2]) | inhibition zone (IZ) (Candida albicans [3]) [mm] | inhibition zone (IZ) (Candida albicans [4]) [mm] | inhibition zone (IZ) (Candida albicans [5]) [mm]
C[C@@H]1CCCC(=O)c2c(O)cc(O)cc2CC(=O)O1 | inactive | inactive | inactive | inactive |  |  | 
C[C@H]1C[C@H](O)CC(=O)c2c(O)cc(O)cc2CC(=O)O1 | inactive | inactive | inactive | inactive |  |  | 
C[C@H]1CCC[C@@H](O)CC(=O)c2c(O)cc(O)cc2CC(=O)O1 | inactive | inactive | inactive | inactive |  |  | 
C[C@@H]1C[C@H](O)CC(=O)c2c(O)cc(O)cc2CC(=O)O1 [XESTODECALACTONE B] | inactive | inactive | inactive | inactive | 12 | 7 | 25
C[C@@H]1C[C@H](O)CCCC(=O)CC(=O)O1 | inactive | inactive | inactive | inactive |  |  | 
C[C@@H]1CCCC(=O)C[C@@H](O)CC(=O)O1 | inactive | inactive | inactive | inactive |  |  | 
C[C@H]1CCC[C@H](O)CC(=O)c2c(O)cc(O)cc2CC(=O)O1 | inactive | inactive | inactive | inactive |  |  | 
C[C@H]1CCCCCC(=O)c2c(O)cc(O)cc2CC(=O)O1 | inactive | inactive | inactive | inactive |  |  | 
CC1C/C=C/C(=O)c2c(O)cc(O)cc2CC(=O)O1 (centres undefined) | inactive | inactive | inactive | inactive |  |  | 
